{"source": "paper PMC5663926", "about": "“In vivo near-infrared imaging of ErbB2 expressing breast tumors with dual-axes confocal endomicroscopy using a targeted peptide” (Scientific Reports, 2017)", "key": {"[1]": {"assay": "Absorption and fluorescence emission spectra", "assay_type": "physicochemical", "text": "We synthesized the ErbB2 and control peptides using standard Fmoc mediated solid-phase chemical synthesis and labeled with either Cy5.5 or IRDye800 fluorophores via standard bio-conjugation techniques. We used IRDye800CW-malemide (LiCor Biosciences) to label the peptide via a GGGSC linker at the C-terminus. The coupling yield was about 20–30% in aqueous solution without use of catalysis. IRDye800CW was used because of its high quantum yield, photostability, and lack of toxicity. The peptide absorption spectrum was measured using a UV-vis spectrophotometer in the 300–900 nm range (NanoDrop 2000, Thermo Scientific). Fluorescence emission from a 5 μM peptide solution diluted in PBS was collected with a fiber coupled spectrophotometer (Ocean Optics) using a diode pumped solid state laser (Technica Laser Inc) with excitation at λex = 780 nm. The spectra were plotted using Origin 9.5 software (OriginLab Corp)."}, "[2]": {"tested_on": "ErbB2 in human breast specimens (IDC, DCIS, normal)", "assay": "Immunofluorescence of human breast specimens ex vivo", "text": "We evaluated peptide binding to sections of human breast specimens to assess potential for clinical translation. […] Representative histology (H&E) is shown, Fig. 6D. We also observed strong co-localization of binding (arrow) between KSP*-IR800 peptide (red) and AF488-labeled anti-ErbB2 antibody (green) to ErbB2 + IDC specimens with Pearson’s correlation coefficient of ρ = 0.53, Fig. 6E,F. We quantified the fluorescence intensities, Fig. 6G. […] Representative histology (H&E) for DCIS is shown, Fig. 6M. […] Representative histology (H&E) for normal is shown, Fig. 6O.\n(§1) Resected human xenograft breast tumors and normal breast tissues from n = 8 mice were formalin-fixed, paraffin embedded, and cut in 5 μm thick sections. IDC and normal human breast tissues were collected and prepared with the same protocol. The specimens were cut in 5 μm sections, and deparaffinization, rehydration and antigen unmasking was performed, as described previously. Blocking was performed with DAKO protein blocking agent (X0909, DAKO) for 1 hour at RT. Sections were then incubated with 0.5 μM of either peptide in 2% BSA for 10 min at RT. The sections were washed with PBS 3X and mounted with Prolong Gold reagent containing DAPI (Invitrogen).\nFormalin-fixed, paraffin-embedded (FFPE) human breast specimens known to express ErbB2 (n = 4 patients) were obtained from the archived tissue bank in the Department of Pathology at the University of Michigan. 5 μm sections were cut and rehydrated to water. Slides were counterstained with Harris Hematoxylin for 5 sec, dehydrated, and cover-slipped. Heat induced epitope retrieval was performed with FLEX TRS High pH Retrieval buffer (DAKO, 9.01) for 20 min. After peroxidase blocking, the antibody Her2/neu rabbit monoclonal (Cell Marque Corporation, SP3 cat#237R-16) was applied at a dilution of 1:150 at RT for 20 min. The EnVision + detection System HRP anti-rabbit (DAKO, #K4002) was used for detection. DAB chromogen was then applied for 10 min. Sections of human breast specimens were mounted onto glass slides (Superfrost Plus, Fischer Scientific). The tissues were deparaffinized, and antigen retrieval was performed, as discussed above. Histology and IHC were performed to evaluate for ErbB2 expression.\nHuman breast specimens were embedded in paraffin and antigen unmasking was performed as described above. Blocking was performed with 2% BSA solution in PBS at RT for 1 hour. We used 1:250 dilution of monoclonal mouse anti-ErbB2 antibody (clone 111.6, Thermo Scientific). The sections were incubated at RT for 1 hour with primary antibody and then washed in PBS for 5 min. […] Fluorescence intensities were measured from 3 randomly positioned boxes with dimensions of 20 × 20 μm^2."}, "[3]": {"tested_on": "ErbB2 on BT474 (ErbB2+) and MDA-MB-231 (ErbB2−) human breast cancer cells", "assay": "Confocal microscopy of NIR-labeled peptide binding to breast cancer cells", "assay_type": "cell-based", "settings": "1 μM peptide, 2% BSA, 4 °C, 1 hour", "method": "(§2) ~10^4 human breast cancer cells were seeded on 1 mm thick cover glass, and grown to ~80% confluence in 12 well plates. The cells were gently washed with cold PBS and blocked with 2% BSA before incubation with peptides. 1 μM of IRDye800CW-labeled peptides mixed with 2% BSA was added to each well and incubated at 4 °C for 1 hour. After incubation for […], the cells were washed with PBS 3X, fixed in ice cold 4% PFA for 10 min, and washed with PBS 1X. The cells were then embedded on microscope slides with 5 μL of ProLong Gold reagent containing DAPI (Invitrogen). SKBR3 cells were cultured in 6-well plates at 30–40% confluence in culture media supplemented with 10% fetal bovine serum without antibiotics. The cells were transfected with siRNA with a final concentration of […] using oligofectamine (Thermo Scientific).\nFor imaging, we used an inverted confocal microscope (Olympus FV1200) with a 63X water immersion objective and λex = 748 nm to excite IRDye800CW, λex = 405 nm for DAPI, and λex = 488 nm for Alexa Fluor 488. For antibody staining, the cells were pre-fixed with cold methanol for 10 min at −20 °C and blocked with 2% BSA for 30 min at room temperature (RT). […] Fluorescence intensities were measured from 3 randomly positioned boxes with dimensions of 20 × 20 μm^2, and were quantified using custom Matlab (Mathworks) software."}, "[4]": {"tested_on": "ErbB2 in BT474 and MDA-MB-231 xenograft tumor and normal breast sections", "assay": "Immunofluorescence of human xenograft breast tumor sections", "parameters": "species or system mouse", "settings": "0.5 μM peptide, 10 min at RT", "method": "Representative histology (H&E) for the MDA-MB-231 tumor is shown, Fig. S7I. […] Representative histology (H&E) for normal is shown, Fig. S7M.\nas §1"}, "[5]": {"tested_on": "ErbB2", "assay": "Competition with unlabeled peptide for binding of labeled KSP* to cells", "assay_type": "cell-based, human", "settings": "unlabeled peptide 0, 100, 250, 500, 1000 μM, 30 min at 4 °C; for effect of unlabeled peptide on binding of KSP*-IR800: BT474 cells as per Results text, then 0.5 μM labeled peptide; for effect of unlabeled peptide on mean fluorescence intensity of KSP*-Cy5.5: SKBR3 cells, one-way ANOVA (Fig. 2 legend)", "method": "We performed competition by adding either unlabeled KSP* or PPS* peptide to block binding of KSP*-IR800 to BT474 cells. […] We also observed good co-localization of binding between KSP*-Cy5.5 (red) and AlexaFluor488-labeled anti-ErbB2 antibody (green) with Pearson’s correlation coefficient ρ = 0.70, Fig. 2P–S.\nSpecific binding of KSP*-IR800 to SKBR3 cells was validated using competition with unlabeled KSP* peptide. SKBR3 cells were grown to ~70% confluence on coverslips in triplicate. Unlabeled KSP* at concentrations of 0, 100, 250, 500, and 1000 μM was incubated with the cells for 30 min at 4 °C. The cells were washed with PBS 3X, and further incubated with 0.5 μM of KSP*-IR800 for another 30 min at 4 °C. The cells were washed with PBS 3X and fixed with 4% PFA for 10 min. The cells were washed with PBS and then mounted with ProLong Gold reagent containing DAPI (Invitrogen). Confocal fluorescence images were collected and intensities from 6 independent images at each concentration were quantified using custom Matlab (Mathworks) software."}, "[6]": {"tested_on": "ErbB2 on SKBR3 human breast cancer cells", "assay": "siRNA knockdown of ErbB2 in SKBR3 cells, binding of labeled ligand", "assay_type": "cell-based", "method": "We performed siRNA knockdown of ErbB2 in SKBR3 human breast cancer cells to validate specific binding of KSP* to ErbB2.\nas §2\nWe examined ErbB2 knockdown in SKBR3 cells using ON-TARGETplus human siRNA (#L-003126–00–0005), ON-TARGETplus Non-targeting pool (#D-001810–10–05), and DharmaFECT transfection reagents (Thermo Scientific) per manufacturer instructions. We transfected SKBR3 cells with either siErbB2 (targeting siRNA) or siCL (non-targeting siRNA) for control at a final concentration of […] using oligofectamine (Thermo Scientific)."}, "[7]": {"tested_on": "ErbB2 on SKBR3 cells", "assay": "Binding co-localization with anti-ErbB2 antibody on cells", "assay_type": "cell-based, human", "settings": "KSP*-Cy5.5 and anti-ErbB2-AF488, average of 3 independent measurements", "method": "[…] The cells were washed and fixed with 4% PFA for 5 min, and then incubated with primary anti-ErbB2 and secondary AF488-labeled antibody.\nFor imaging, we used an inverted confocal microscope (Olympus FV1200) with a 63X water immersion objective and λex = 748 nm to excite IRDye800CW, λex = 405 nm for DAPI, and λex = 488 nm for Alexa Fluor 488. For antibody staining, the cells were pre-fixed with cold methanol for 10 min at −20 °C and blocked with 2% BSA for 30 min at room temperature (RT). Cells were incubated with a 1:450 dilution of anti-ErbB2 antibody (clone 111.6, Thermo Scientific) overnight at 4 °C. The cells were then washed with PBS 3X, and secondary goat […] antibody labeled with Alexa-Fluor 488 (AF488) was added to the cells for 1 hour at RT. The cells were washed further with PBS and mounted onto cover glass. Fluorescence intensities were measured from 3 randomly positioned boxes with dimensions of 20 × 20 μm^2, and were quantified using custom Matlab (Mathworks) software."}, "[8]": {"target": "ErbB2 extracellular domain 3", "settings": "cited from earlier work"}}, "data": [{"substance": "PPSNFKR [PPS*-IR800]", "values": [{"measurement": "peak emission λem", "setting": "[1]; 5 μM peptide solution diluted in PBS, excitation 780 nm", "result": 800, "unit": "nm"}, {"measurement": "maximum absorbance λex", "setting": "[1]; UV-vis spectrophotometer, 300–900 nm range", "result": 780, "unit": "nm"}, {"measurement": "binding / signal on immunofluorescence", "setting": "[2]; ductal carcinoma in situ (DCIS), 0.5 μM peptide, 10 min at RT, qualitative", "result": "minimal signal"}, {"measurement": "binding / signal on immunofluorescence", "setting": "[2]; invasive ductal carcinoma (IDC), 0.5 μM peptide, 2% BSA, 10 min at RT, qualitative", "result": "minimal signal"}, {"measurement": "fold greater signal, IDC (ErbB2+) versus normal (ErbB2−) breast", "setting": "[2]; n = 4 patients, ANOVA on log-transformed data, difference of differences not significant, P = 0.09", "result": 1.30, "unit": "fold"}, {"measurement": "staining on immunofluorescence", "setting": "[2]; normal human breast tissue, 0.5 μM peptide, 10 min at RT, qualitative", "result": "minimal staining"}, {"measurement": "fold greater signal, BT474 versus MDA-MB-231 cells", "setting": "[3]; average of 3 independent measurements, ANOVA on log-transformed data, difference of differences significant", "result": 1.04, "unit": "fold"}, {"measurement": "signal to cell surface", "setting": "[3]; either cell (BT474 and MDA-MB-231), qualitative", "result": "Minimal signal"}, {"measurement": "binding / signal on immunofluorescence", "setting": "[4]; BT474 xenograft tumor sections, 2% BSA, qualitative", "result": "minimal signal"}, {"measurement": "fluorescence intensity on immunofluorescence", "setting": "[4]; MDA-MB-231 tumor sections, qualitative", "result": "minimal"}, {"measurement": "fluorescence intensity on immunofluorescence", "setting": "[4]; normal breast sections, qualitative", "result": "minimal"}, {"measurement": "fold increase, BT474 versus MDA-MB-231 tumors", "setting": "[4]; xenograft tumor sections, ANOVA with terms for 6 groups on log-transformed data", "result": 1.8, "unit": "fold"}]}, {"substance": "PPSNFKR [PPS*, unlabeled scrambled control peptide]", "values": [{"measurement": "effect of unlabeled peptide on binding of KSP*-IR800", "setting": "[5]", "result": "significantly less effective competition"}, {"measurement": "effect of unlabeled peptide on mean fluorescence intensity of KSP*-Cy5.5", "setting": "[5]", "result": "significantly less affected"}]}, {"substance": "KSPNPRF [KSP*]", "values": [{"measurement": "effect of unlabeled peptide on binding of KSP*-IR800", "setting": "[5]", "result": "decreases significantly in a concentration dependent manner"}, {"measurement": "effect of unlabeled peptide on mean fluorescence intensity of KSP*-Cy5.5", "setting": "[5]", "result": "decreases significantly in a concentration dependent manner"}]}, {"substance": "KSPNPRF [KSP*-Cy5.5]", "values": [{"measurement": "fold greater signal, siCL control versus siErbB2 knockdown cells", "setting": "[6]; SKBR3, average of 3 independent measurements, ANOVA, difference of differences significant", "result": 4.42, "unit": "fold"}, {"measurement": "reduction in fluorescence intensities in ErbB2 knockdown cells", "setting": "[6]; SKBR3 siErbB2 versus siCL, qualitative", "result": "significant reduction"}, {"measurement": "binding to cell surface", "setting": "[6]; control SKBR3 cells (siCL), qualitative", "result": "strong binding"}, {"measurement": "Pearson's correlation coefficient ρ for co-localization with anti-ErbB2-AF488", "setting": "[7]", "result": 0.70}, {"measurement": "Kd", "setting": "[8]; peptide labeled with Cy5.5, read-out: affinity", "result": 0.02, "unit": "µM"}, {"measurement": "binding kinetics (rate)", "setting": "[8]; peptide labeled with Cy5.5", "result": 0.14, "unit": "min⁻¹"}]}]}
